Results taken from patent US9770434B2, “Compositions for improved body composition” (Northern Innovations Holding Corp, priority 2014, dated 2017).
Entries after “also recorded” stand apart in the source; their conditions may differ.

What was measured:
Type in all cases: in vivo, C57BL6/J male mice
[1] = DEXA scan of high fat diet mice (body fat %, fat mass, lean mass); conditions: HFD mice; after 10 weeks of treatment
Description: (§1) 5 week old C57BL6/J male mice were divided into 2 groups as follows: normal diet (ND) (10% kcal/fat) or high fat diet (HFD) (60% kcal/fat) each containing the same total calories. At 12 weeks of age, the HFD group was further divided into 4 groups as follows: HFD alone, HFD supplemented with alpha-lipoic acid (HFD+ALA), HFD supplemented with curcumin (HFD+CUR), or HFD supplemented with alpha-lipoic acid plus curcumin (HFD+ALA+CUR). Based on the average food intake, the daily dose for alpha-lipoic acid in the HFD+ALA group was about 174 mg/kg, the daily dose for curcumin in the HFD+CUR group was about 65 mg/kg, and the daily dose for each component in the HFD+ALA+CUR group was similar to that in the respective groups. Each of the 5 groups contained 8-10 mice. Body weight of the mice was recorded weekly and food intake was monitored every two days. After 10 weeks of treatment mice from each group were subjected to dual-energy X-ray absorptiometry (DEXA) scan; percent (%) body fat, fat mass, and lean mass were calculated.

[2] = Food intake of high fat diet mice; conditions: HFD mice; monitored every two days; compared to HFD mice
Description: as §1

[3] = Body weight of high fat diet mice during treatment; conditions: HFD mice, ALA about 174 mg/kg daily, curcumin about 65 mg/kg daily; for body weight during the course of the experiment (FIG. 1): supplement in diet, recorded weekly
Description: as §1

Row | SMILES | DEXA body fat % (FIG. 6) [1] | DEXA fat mass (FIG. 7) [1] | DEXA lean mass (FIG. 8) [1] | food intake (grams) per day per gram body weight (FIG. 4) [2] | food intake (kcals) per day per gram body weight (FIG. 5) [2] | body weight / weight gain after 11 weeks of treatment (FIG. 3) [3] | body weight during the course of the experiment (FIG. 1) [3]
1 | O=C(O)CCCCC1CCSS1 (racemic) [alpha-lipoic acid, 6,8-dithio octanoic acid] | failed to reduce body fat % | attenuated increase in fat mass compared to the HFD group | significant attenuation in lean mass accrual | reduced food intake | reduced calorie intake | attenuated weight gain; also recorded: efficacy at attenuating weight gain | weight gain less than the HFD mice
2 | COc1cc(/C=C/C(=O)CC(=O)/C=C/c2ccc(O)c(OC)c2)ccc1O [curcumin] | reduced the increased body fat % from a high fat diet |  | unaltered |  |  | attenuated weight gain; also recorded: efficacy at attenuating weight gain | weight gain less than the HFD mice
